For assay [1], the system named is follicle stimulating hormone (FSH). The experiment in a line: CS21: serum FSH over time. The format is in vivo, human. As to the method:
Finally, the study evaluated the pharmacokinetics of the degarelix dosing regimens investigated.
(§1) The secondary efficacy endpoints were: the proportion of patients with testosterone surge during the first 2 weeks of treatment; the proportion of patients with testosterone level ≤0.5 ng/mL at day 3; the percentage change in PSA from baseline to day 28; the probability of testosterone ≤0.5 ng/mL from day 56 through day 364; the levels of serum testosterone, LH, FSH and PSA over time through the study; the time to PSA failure, defined as two consecutive increases of 50%, and at least 5 ng/mL as compared to nadir; degarelix concentration over the first month and trough levels at day 308 and 336; the frequency and size of testosterone increases at day 255 and/or 259 compared to the testosterone level at day 252; the quality of life on days 0, 28, 84, 168 and end of study visit; the frequency and intensity of hot flushes experienced (scored daily from study start until end of study visit. In addition, two further secondary endpoints were added: the probability of sufficient testosterone response from day 28 through day 364 (a patient was considered to have insufficient testosterone response if they had one testosterone value >1.0 ng/mL or two consecutive testosterone values >0.5 ng/mL at day 28 onwards); and the percentage change in PSA from baseline to Day 14.

Assay [2] has as its system prostate-specific antigen (PSA). The experiment in a line: CS21: PSA response and PSA failure. Conditions: for Day 14 percentage change in PSA, median / Day 28 percentage change in PSA, median: Day 0 dose degarelix 240@40; for median percentage change (reduction) in PSA from baseline: leuprolide 7.5 mg with anti-androgen flare protection; for median percentage reduction in PSA from baseline: leuprolide 7.5 mg without anti-androgen. It counts as in vivo, human. As to the method:
as §1
All secondary efficacy endpoints were analyzed for both the ITT and PP analysis sets, unless otherwise stated. The proportion of patients with testosterone surge during the first 2 weeks of treatment was analyzed using Fisher's exact test. Fisher's exact test was also used to analyze the proportion of patients with testosterone level ≤0.5 ng/mL at day 3. The percentage change in PSA from baseline to day 28 endpoint was analyzed by a Wilcoxon test.
The secondary endpoints; probability of testosterone ≤0.5 ng/mL from Day 56 through Day 364, time to PSA failure and probability of sufficient testosterone response from Day 28 through Day 364 were analyzed by the Kaplan-Meier method.

The mark [3] stands for this setting: age <65, degarelix 240@40/80@20, LUPRON DEPOT 7.5 mg.
[4] abbreviates: age >=75, degarelix 240@40/80@20, LUPRON DEPOT 7.5 mg.
Setting [5] is: degarelix 240/80 mg, leuprolide 7.5 mg.

Square brackets hold non-standard residues; d marks the D form. Peptide text beside a SMILES is read from it. * marks the point of attachment. dPhe(4-NHCONH2) = NC(=O)Nc1ccc(C[C@@H](N)C(=O)O)cc1; Dihydroorotyl(S) = O=C1C[C@@H](C(=O)*)NC(=O)N1; dPhe(4-Cl) = N[C@H](Cc1ccc(Cl)cc1)C(=O)O; Phe(4-NH2) = Nc1ccc(C[C@H](N)C(=O)O)cc1; d2Nal = N[C@H](Cc1ccc2ccccc2c1)C(=O)O; Lys(iPr) = CC(C)NCCCC[C@H](N)C(=O)O; d3Pal = N[C@H](Cc1cccnc1)C(=O)O A value given as a limit tells only on which side of the number the result lay.

Data on two compounds can be found in patent US11766468B2, “Method of treating prostate cancer with GnRH antagonist” (priority 2012, dated 2023).

As for `CCNC(=O)[C@@H]1CCCN1C(=O)[C@H](CCCNC(=N)N)NC(=O)[C@H](CC(C)C)NC(=O)[C@@H](CC(C)C)NC(=O)[C@H](Cc1ccc(O)cc1)NC(=O)[C@H](CO)NC(=O)[C@H](Cc1c[nH]c2ccccc12)NC(=O)[C@H](Cc1c[nH]cn1)NC(=O)[C@@H]1CCC(=O)N1` [Leuprolide, leuprolide, reference compound], the “median FSH plateau” value in assay [1] (around day 56 until day 364) is given as “approximately 4.40 IU/L”. Besides, in assay [1] (by day 14), the “median FSH level” value came out at 2.0 IU/L. Moreover, the “increase in FSH from baseline” value in assay [1] (day 1) came out at 146%. The “median FSH level (peak)” value in assay [1] (day 1) stood at 22.5 IU/L. For the same compound, the entries for the “Day 14 percentage change in PSA, median” value in assay [2] (PCA = Localized), in assay [2] (PCA = Metastatic) and in assay [2] (PCA Locally advanced) were −13.2%, −25.3% and −21.3%, respectively. Also, the figures for the “Day 28 percentage change in PSA, median” value in assay [2] (PCA = Localized), in assay [2] (PCA = Metastatic) and in assay [2] (PCA Locally advanced) were −55.7%, −79.7% and −73.2%, respectively. Besides, the “Probability of no PSA failure” value in assay [2] (setting [3]) amounted to 68.2%; in assay [2] (setting [4]), 86.8%. For the same compound, the results for the “median percentage change (reduction) in PSA from baseline” value in assay [2] (day 14) and in assay [2] (day 28) were 61.7% and 89.1%, respectively. Besides, the “median percentage reduction in PSA from baseline” value in assay [2] (day 14) stood at 15.3%; in assay [2] (day 28), 61.7%. Moreover, in assay [2] (setting [5]), the “probability of completing the study without experiencing PSA failure” value was approximately 85.8%.

In the case of `CC(=O)N[C@H](Cc1ccc2ccccc2c1)C(=O)N[C@H](Cc1ccc(Cl)cc1)C(=O)N[C@H](Cc1cccnc1)C(=O)N[C@@H](CO)C(=O)N[C@@H](Cc1ccc(NC(=O)[C@@H]2CC(=O)NC(=O)N2)cc1)C(=O)N[C@H](Cc1ccc(NC(N)=O)cc1)C(=O)N[C@@H](CC(C)C)C(=O)N[C@@H](CCCCNC(C)C)C(=O)N1CCC[C@H]1C(=O)N[C@H](C)C(N)=O` [Degarelix, D-Alaninamide, N-acetyl-3-(2-naphthalenyl)-D-alanyl-4-chloro-D-phenylalanyl-3-(3-pyridinyl)-D-alanyl-L-seryl-4-[[[(4S)-hexahydro-2,6-dioxo-4-pyrimidinyl]carbonyl]amino]-L phenylalanyl-4-[(aminocarbonyl)amino]-D-phenylalanyl-L leucyl-N6-(1-methylethyl)-L-lysyl-L-prolyl] (Ac-[d2Nal][dPhe(4-Cl)][d3Pal]S[Phe(4-NH2)](Dihydroorotyl(S))[dPhe(4-NHCONH2)]L[Lys(iPr)]P[dA]-NH2), in assay [1] (by day 7), the “decrease in median FSH from baseline” value was more than 80%. The “median FSH level” value in assay [1] (by day 7) was not above 1.5 IU/L. Besides, the “Day 14 percentage change in PSA, median” value is −50.6% in assay [2] (PCA = Localized), −77.9% in assay [2] (PCA = Metastatic) and −66.6% in assay [2] (PCA Locally advanced). Moreover, the entries for the “Day 28 percentage change in PSA, median” value in assay [2] (PCA = Localized), in assay [2] (PCA = Metastatic) and in assay [2] (PCA Locally advanced) were −75.0%, −89.9% and −84.1%, respectively. Also, the “Probability of no PSA failure” value in assay [2] (age <65, degarelix 240/160@40) turned out to be 71.6%; in assay [2] (setting [3]), 85.2%; in assay [2] (age >=75, degarelix 240/160@40) it was 94.5%; in assay [2] (setting [4]), 96.6%. For the same compound, the “probability of a PSA observation from the pooled degarelix groups being less than one from the leuprolide 7.5 mg group” value is given as 0.82 in assay [2] (day 14) and 0.70 in assay [2] (day 28). The figures for the “probability of completing the study without experiencing PSA failure” value in assay [2] (setting [5]) and in assay [2] (degarelix 240/160 mg) were 91.2% and approximately 85.8%, respectively.
